In PubChem BioAssay AID248 (DTP/NCI, 2004):
Values joined by “and” are separate entries in the source; they are usually repeats but may differ in a detail not shown here. Equal values may be shown once. Toxic doses and inconclusive results are not listed. Cut-off read from the data, not from the text of the source: active = T/C of 150% or more; inactive = T/C below 125%.

System: L1210 leukemia ip in BDF1 mice, survival T/C
Assay: NCI In Vivo Anticancer Drug Screen. Data for tumor model L1210 Leukemia (intraperitoneal) in B6D2F1 (BDF1) mice
Conditions: endpoint: mean survival time, higher = longer survival
In short: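 Antitumor effect is assessed in tumor-bearing animals. Survival in the compound arm is compared with a vehicle-dosed control arm and expressed as their quotient.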

[1] = dose: 100.0 mg/kg/injection, schedule: Q01DX001 (ip), vehicle: saline with Tween-80
[2] = dose: 200.0 mg/kg/injection, schedule: Q01DX001 (ip), vehicle: saline with Tween-80
[3] = dose: 400.0 mg/kg/injection, schedule: Q01DX001 (ip), vehicle: saline with Tween-80
[4] = dose: 100.0 mg/kg/injection, schedule: Q04DX002 (ip), vehicle: saline with Tween-80
[5] = dose: 100.0 mg/kg/injection, schedule: Q01DX001 (ip), vehicle: saline
[6] = dose: 100.0 mg/kg/injection, schedule: Q01DX009 (ip), vehicle: saline
[7] = dose: 100.0 mg/kg/injection, schedule: Q04DX003 (ip), vehicle: saline
[8] = dose: 200.0 mg/kg/injection, schedule: Q01DX001 (ip), vehicle: saline
[9] = dose: 200.0 mg/kg/injection, schedule: Q01DX009 (ip), vehicle: saline
[10] = dose: 200.0 mg/kg/injection, schedule: Q04DX002 (ip), vehicle: saline
[11] = dose: 400.0 mg/kg/injection, schedule: Q01DX001 (ip), vehicle: saline
[12] = dose: 50.0 mg/kg/injection, schedule: Q01DX009 (ip), vehicle: saline with Tween-80
[13] = dose: 100.0 mg/kg/injection, schedule: Q01DX009 (ip), vehicle: saline with Tween-80
[14] = dose: 100.0 mg/kg/injection, schedule: Q04DX003 (ip), vehicle: saline with Tween-80
[15] = dose: 200.0 mg/kg/injection, schedule: Q01DX009 (ip), vehicle: saline with Tween-80
[16] = dose: 200.0 mg/kg/injection, schedule: Q04DX003 (ip), vehicle: saline with Tween-80
[17] = dose: 400.0 mg/kg/injection, schedule: Q04DX003 (ip), vehicle: saline with Tween-80
[18] = dose: 100.0 mg/kg/injection, schedule: Q01DX009 (ip), vehicle: Klucel (hydroxypropylcellulose) (HPC)
[19] = dose: 200.0 mg/kg/injection, schedule: Q01DX009 (ip), vehicle: Klucel (hydroxypropylcellulose) (HPC)
[20] = dose: 400.0 mg/kg/injection, schedule: Q01DX009 (ip), vehicle: Klucel (hydroxypropylcellulose) (HPC)

Measured: T/C

O=C1c2c(c(-c3ccccc3)c3ccccc3c2-c2ccccc2)C(c2ccccc2)c2c1c(-c1ccccc1)c1ccccc1c2-c1ccccc1
inactive: [1] 111 % of control | [2] 97 % of control | [3] 90 % of control

CCOC(=O)C1C2/C=C/CCCCC21 (centres undefined)
inactive: [4] 105 % of control | dose: 200.0 mg/kg/injection, schedule: Q04DX002 (ip), vehicle: saline with Tween-80 112 % of control | dose: 400.0 mg/kg/injection, schedule: Q04DX002 (ip), vehicle: saline with Tween-80 98 % of control

CC(=O)NC(C)C(=O)O (centres undefined)
inactive: [5] 90 % of control and 92 % of control | [6] 100 % of control and 111 % of control and 103 % of control | dose: 100.0 mg/kg/injection, schedule: Q04DX002 (ip), vehicle: saline 96 % of control and 111 % of control and 92 % of control | [7] 89 % of control and 103 % of control | [8] 106 % of control and 93 % of control | [9] 93 % of control and 92 % of control and 97 % of control | [10] 105 % of control and 93 % of control and 94 % of control | dose: 200.0 mg/kg/injection, schedule: Q04DX003 (ip), vehicle: saline 90 % of control and 98 % of control | [11] 94 % of control and 93 % of control | dose: 400.0 mg/kg/injection, schedule: Q01DX009 (ip), vehicle: saline 90 % of control and 92 % of control and 100 % of control | dose: 400.0 mg/kg/injection, schedule: Q04DX002 (ip), vehicle: saline 96 % of control and 94 % of control and 101 % of control | dose: 400.0 mg/kg/injection, schedule: Q04DX003 (ip), vehicle: saline 94 % of control and 103 % of control

CC(=O)NC1CCC(NC(C)=O)CC1 (centres undefined)
inactive: [5] 104 % of control | [8] 97 % of control | [11] 104 % of control

O=C(c1cccs1)c1cscc1C(=O)c1cccs1
inactive: [1] 95 % of control | [2] 95 % of control | [3] 92 % of control

O=C(O)CNC(=O)NCO
inactive: dose: 100.0 mg/kg/injection, schedule: Q01DX001 (ip), vehicle: acetone 100 % of control | dose: 200.0 mg/kg/injection, schedule: Q01DX001 (ip), vehicle: acetone 100 % of control | dose: 400.0 mg/kg/injection, schedule: Q01DX001 (ip), vehicle: acetone 103 % of control

COc1ccc(C(=O)CC(c2ccc3c(c2)OCO3)c2c(O)c3ccccc3oc2=O)cc1OC (centres undefined)
inactive: [12] 97 % of control | [13] 96 % of control | [14] 94 % of control | [15] 92 % of control | [16] 102 % of control | dose: 400.0 mg/kg/injection, schedule: Q01DX009 (ip), vehicle: saline with Tween-80 87 % of control | [17] 89 % of control

CCCCOP(=O)(OCCCC)O/C(C)=C(\C)OP(=O)(OCC)OCC
inactive: dose: 25.0 mg/kg/injection, schedule: Q04DX002 (ip), vehicle: saline 97 % of control and 102 % of control | dose: 25.0 mg/kg/injection, schedule: Q04DX003 (ip), vehicle: saline 102 % of control | dose: 50.0 mg/kg/injection, schedule: Q04DX002 (ip), vehicle: saline 95 % of control and 97 % of control | dose: 50.0 mg/kg/injection, schedule: Q04DX003 (ip), vehicle: saline 108 % of control | [7] 108 % of control | [10] 97 % of control

CC(C)(C)C(=O)Nc1ccc(F)cc1
inactive: [18] 110 % of control | [19] 94 % of control | [20] 116 % of control

CCCCCCCC(=O)Oc1ccc([N+](=O)[O-])cc1
inactive: dose: 75.0 mg/kg/injection, schedule: Q01DX001 (ip), vehicle: saline 100 % of control | dose: 150.0 mg/kg/injection, schedule: Q01DX001 (ip), vehicle: saline 109 % of control | dose: 300.0 mg/kg/injection, schedule: Q01DX001 (ip), vehicle: saline 95 % of control

C=CC(=O)c1ccccc1
inactive: dose: 25.0 mg/kg/injection, schedule: Q04DX002 (ip), vehicle: saline with Tween-80 100 % of control | dose: 50.0 mg/kg/injection, schedule: Q04DX002 (ip), vehicle: saline with Tween-80 87 % of control | [4] 94 % of control

Cc1cc(Cl)ccc1NC(=O)COc1ccc(Cl)cc1Cl
inactive: [12] 87 % of control | [13] 87 % of control | [14] 93 % of control | [15] 96 % of control | [16] 91 % of control

COc1ccc(/C=C(\CC(=O)O)C(=O)O)cc1OC
inactive: [18] 92 % of control | dose: 100.0 mg/kg/injection, schedule: Q04DX003 (ip), vehicle: Klucel (hydroxypropylcellulose) (HPC) 96 % of control | [19] 95 % of control | dose: 200.0 mg/kg/injection, schedule: Q04DX003 (ip), vehicle: Klucel (hydroxypropylcellulose) (HPC) 91 % of control | [20] 95 % of control | dose: 400.0 mg/kg/injection, schedule: Q04DX003 (ip), vehicle: Klucel (hydroxypropylcellulose) (HPC) 102 % of control

CCCCSc1n[nH]c(=O)nc1N
inactive: [5] 93 % of control | [8] 96 % of control | [11] 98 % of control

Nc1cccc(CSc2nc3nc[nH]c3c(=O)[nH]2)c1
inactive: dose: 25.0 mg/kg/injection, schedule: Q01DX001 (ip), vehicle: Klucel (hydroxypropylcellulose) (HPC) 102 % of control | dose: 50.0 mg/kg/injection, schedule: Q01DX001 (ip), vehicle: Klucel (hydroxypropylcellulose) (HPC) 100 % of control | dose: 100.0 mg/kg/injection, schedule: Q01DX001 (ip), vehicle: Klucel (hydroxypropylcellulose) (HPC) 102 % of control

O=C(C1=CCCC1)C1=CCCC1
inactive: dose: 50.0 mg/kg/injection, schedule: Q01DX001 (ip), vehicle: saline with Tween-80 99 % of control | [1] 105 % of control | [2] 99 % of control

Clc1ccccc1C(c1ccc(I)cc1)C(Cl)Cl (centres undefined)
inactive: [5] 101 % of control | [8] 93 % of control | [11] 104 % of control

CN1CCCN(C)CC1
inactive: dose: 25.0 mg/kg/injection, schedule: Q01DX009 (ip), vehicle: saline with Tween-80 104 % of control | [12] 97 % of control | [13] 103 % of control | [14] 95 % of control | [15] 91 % of control | [16] 100 % of control | [17] 102 % of control

O=C1CCC2(CCC(=O)O2)O1
inactive: dose: 50.0 mg/kg/injection, schedule: Q01DX009 (ip), vehicle: saline 100 % of control | [6] 100 % of control | [9] 92 % of control

CC1COC(C(C)C)O1 (centres undefined)
inactive: dose: 50.0 mg/kg/injection, schedule: Q01DX009 (ip), vehicle: acetone 90 % of control | dose: 100.0 mg/kg/injection, schedule: Q01DX009 (ip), vehicle: acetone 97 % of control | dose: 100.0 mg/kg/injection, schedule: Q04DX003 (ip), vehicle: acetone 95 % of control | dose: 200.0 mg/kg/injection, schedule: Q01DX009 (ip), vehicle: acetone 95 % of control | dose: 200.0 mg/kg/injection, schedule: Q04DX003 (ip), vehicle: acetone 103 % of control | dose: 400.0 mg/kg/injection, schedule: Q04DX003 (ip), vehicle: acetone 90 % of control

N#CCCC(=O)c1ccncc1
inactive: [14] 96 % of control | [16] 107 % of control | [17] 104 % of control

CC1(C)CC(=O)C2=C(C1)OC1=C(C(=O)CC(C)(C)C1)C2c1ccccc1[N+](=O)[O-]
inactive: [14] 98 % of control | [16] 88 % of control | [17] 97 % of control

Cc1ccccc1N(C=O)c1ccccc1C
inactive: dose: 50.0 mg/kg/injection, schedule: Q01DX Z (ip), vehicle: methylcellulose (MC) 111 % of control | dose: 80.0 mg/kg/injection, schedule: Q01DX Z (ip), vehicle: methylcellulose (MC) 115 % of control | dose: 125.0 mg/kg/injection, schedule: Q01DX Z (ip), vehicle: methylcellulose (MC) 98 % of control and 114 % of control | dose: 180.0 mg/kg/injection, schedule: Q01DX Z (ip), vehicle: methylcellulose (MC) 115 % of control | dose: 240.0 mg/kg/injection, schedule: Q01DX Z (ip), vehicle: methylcellulose (MC) 97 % of control | dose: 250.0 mg/kg/injection, schedule: Q01DX Z (ip), vehicle: methylcellulose (MC) 93 % of control | dose: 300.0 mg/kg/injection, schedule: Q01DX Z (ip), vehicle: methylcellulose (MC) 109 % of control | dose: 360.0 mg/kg/injection, schedule: Q01DX Z (ip), vehicle: methylcellulose (MC) 100 % of control | dose: 500.0 mg/kg/injection, schedule: Q01DX Z (ip), vehicle: methylcellulose (MC) 106 % of control | dose: 1000.0 mg/kg/injection, schedule: Q01DX Z (ip), vehicle: methylcellulose (MC) 98 % of control
